No end group written: not given here.
Assays:
[1] = tested on: Lactobacillus sp. protease; experiment: GFP-random amino acid sequence-polyhistidine peptide library screen, GFP-peptide released from beads by Lactobacillus supernatant; type: biochemical, Lactobacillus acidophilus; settings: plate number 69, exposed to Lactobacillus, FIG. 9
Procedure: (§1) The samples were then incubated with beads that bind the epitope tag (e.g., 10 μl of NTA-resin to bind a polyhistidine tag or 10 μl of methotrexate agarose to bind the FolA tag). The sample was then placed into a microtiter filtration plate and washed three times to remove the unbound proteins. The fluorescent signal of the third wash was measured in a fluorescent microplate reader at an excitation of 355 nm and an emission of 510 nm (for GFP). Alternatively, the HRP activity can be measured in a microplate colorimeter at 405 nm with H2O2 and ABTS substrate. This background reading from the third rinse can later be subtracted from the signal of the released GFP (or HRP) peptides by extracellular bacterial proteases. […]
(§2) The plates can be filtered by centrifugation three times with PBS to remove unbound material and then the GFP-peptide-bound bead can be incubated with microbial extract for 20 min at 37° C. The sample can be filtered and the flow through fluorescence can be compared with the background from the prior wash. If the microbe has a protease that finds the ideal target, then the release of GFP fluorescence from the bead can be over 100 times greater than the background.
(§3) Fluorescence can be measured on a Fluoroskan II instrument with an excitation filter centered at 380 nm and emission filter centered at 538 nm. […]

Gardnerella vaginalis = experiment: GFP-random amino acid sequence-polyhistidine peptide library screen with Gardnerella extracts; type: biochemical; settings: plate 76, FIG. 10
Procedure: as §1, §2, §3

HSV protein UL26 = HSV protein UL26 (Human herpesvirus 1, UniProt P10210); settings: cited from earlier work
C. albicans = experiment: Identification of peptide targets for C. albicans; type: biochemical, Candida albicans
Procedure: Clones of green fluorescent protein (GFP) tagged conjugates were used to identify targets in a high throughput screen. Each clone contained a plasmid harboring a gene that contains a polyhistidine tag (6 his), 30 random nucleotides (corresponding to 10 random amino acids), and green fluorescent protein (GFP). On the day before a screen, 864 glowing clones are grown up overnight at 37° C. in deep well microtiter plates (1 ml/well). In the morning, the cultures can be induced with 1 mM IPTG for 1 hour, the cells can be centrifuged for five minutes, and then the media can be decanted. Lysozyme (2 mg/ml) can be added and the cells can be flash frozen 3 times. The samples can be treated with 100 ul/well of DNAse I at 37° C. for 30 minutes to reduce the viscosity by digesting the DNA. An aliquot of the sample can then be transferred to a microtiter filter plate containing 10 μl of nickel-NTA resin. The pipeting of the reagents (IPTG, lysozyme, DNAse I, and beads) can be performed with a Tecan Genesis RSP 100 Robot with Gemini version 4.0 software.
as §2
(SEQ ID NO: 8), the sequence QKTTIKKLKH (H2) (SEQ ID NO: 9), the sequence KPKAFLKVGN (R8) (SEQ ID NO: 6), the sequence TPIQIHTILH (SEQ ID NO: 10), the sequence […] (SEQ ID NO: 11), the sequence […] (SEQ ID NO: 12), and the sequence […] (SEQ ID NO: 13).

[2] = tested on: proteases produced by Trichomonas vaginalis; experiment: High throughput screening of GFP-random peptide fusion library with Trichomonas vaginalis cell-free growth medium; type: biochemical; settings: 4,900 clones screened, LYI entamoeba medium
Procedure: Peptide substrates for proteases produced by the vaginal pathogen Trichomonas vaginalis were also identified. This microbe was grown in LYI entamoeba medium overnight and the cell-free growth medium was used in the high throughput screening of 4,900 clones from a GFP-random peptide fusion library.
Peptides 39H9 and 42D3 were altered to remove the lysine residues prior to peptide synthesis. The peptides were conjugated to HRP and affigel 10 beads and produced a visible color signal in five minutes at 650 nm when an aliquot of the protease-treated product was incubated with tetramethyl benzidine.

[3] = tested on: C. albicans clinical isolates; settings: for reaction with ten clinical C. albicans isolates (released HRP): HRP-peptide-Affigel conjugate, cell-free growth medium, ten minutes, FIG. 24; for sensitivity: all ten clinical isolates
Procedure: For example, ten clinical C. albicans isolates kindly provided by Dr. Andrew Onderdonk (Brigham and Women's Hospital) were tested alongside a strain obtained from C. albicans ATCC. The yeast cells were grown in YCB-BSA (23.4 g yeast carbon base, 2 g yeast extract, 10 g dextrose, and 5 g of BSA per liter—adjusted to pH 5.0). An aliquot of the cell-free growth medium was mixed with an HRP-peptide-Affigel conjugate for ten minutes and the amount of released HRP was determined.

[4] = tested on: Gardnerella vaginalis, Lactobacillus acidophilus, and Escherichia coli; experiment: HRP-peptide-Affigel conjugates: initial specificity study with other vaginal bacteria; type: biochemical
Candida albicans = tested on: Candida albicans
Procedure: For example, in one embodiment, the H2 peptide was conjugated to Blue dye #1 as a reporter on the C-terminal end. The N-terminal end was conjugated to Affigel 10 beads (BioRad). The beads were exposed to an aliquot of overnight grown Candida albicans for a period of 24 hours at 37° C. A control set of beads was also exposed to culture medium. Blue dye released from the beads by the action of Candida albicans was collected on a membrane to produce a clear signal.
Food grade sensors can be used in consumer products. […] The resulting beads were incubated with growth medium (1:2 BHI/PBS) alone (control) and an overnight grow-up of Candida albicans for 24 hours at 37° C. […] The preferred ion exchange membranes to collect the free dye are SB6407 and Biodyne B (Pall Life Sciences, Ann Arbor, Mich. and positively charged PVDF (Millipore)). These membranes have strong positively-charged quaternary ammonium groups.
In one example, dye-conjugated Affigel 10 beads were exposed to Candida albicans supernatant (20 μl of 1:10 dilution of beads) or a medium control (1:2 BHI/PBS) for 24 hours. The color was collected with a positively charged membrane (SB6407) in with the bead reaction.

HSV protein UL26, sequence (P10210 whole entry): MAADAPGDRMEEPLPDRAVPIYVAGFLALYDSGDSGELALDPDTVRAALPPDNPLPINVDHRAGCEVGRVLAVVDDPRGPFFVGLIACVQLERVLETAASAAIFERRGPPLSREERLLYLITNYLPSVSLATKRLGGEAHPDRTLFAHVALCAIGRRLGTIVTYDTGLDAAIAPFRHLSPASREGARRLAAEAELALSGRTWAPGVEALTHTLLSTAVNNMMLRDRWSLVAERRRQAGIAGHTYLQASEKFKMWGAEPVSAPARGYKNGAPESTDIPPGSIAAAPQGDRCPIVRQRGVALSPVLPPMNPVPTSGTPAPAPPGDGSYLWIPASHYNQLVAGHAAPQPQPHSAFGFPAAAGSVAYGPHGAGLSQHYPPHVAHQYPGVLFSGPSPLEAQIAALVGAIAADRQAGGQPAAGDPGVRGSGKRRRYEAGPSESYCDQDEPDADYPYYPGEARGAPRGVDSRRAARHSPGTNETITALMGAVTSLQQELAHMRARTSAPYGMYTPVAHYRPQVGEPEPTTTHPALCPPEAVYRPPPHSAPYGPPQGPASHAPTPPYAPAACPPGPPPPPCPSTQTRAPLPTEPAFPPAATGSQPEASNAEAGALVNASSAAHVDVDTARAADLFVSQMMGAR

Row | Substance | identified as peptide target for C. albicans (C. albicans) | identified as peptide detecting Trichomonas vaginalis [2] | other results
1 | 69/B8 (PFINETYAKFC; Peptide Substrate of Gardnerella vaginalis) | – | – | signal strength (GFP-peptide released from the beads) [1]: 62.8
2 | 76/C3 (ITTTSSKHEHC; Peptide Substrate of Lactobacillus acidophilus) | – | – | fluorescence after exposure to Gardnerella extracts (Gardnerella vaginalis): strong fluorescence
3 | ASNAEAGALVNASSAAHVDV | – | – | cleavage site (HSV protein UL26): between the 12th amino acid (alanine) and the 13th amino acid (serine); specificity of UL26 for the sequence (HSV protein UL26): strong specificity
4 | INLSKKQIYP (Peptide Substrate of Candida spp.) [peptide target for C. albicans] | peptide targets for C. albicans | – | –
5 | KNPKLQDHYI (Peptide Substrate of Trichomonas vaginalis) [44B5/T7, peptide detecting Trichomonas vaginalis] | – | detect Trichomonas vaginalis | –
6 | KPKAFLKVGN (also: histidine tag) [R8, C. albicans peptide; used as H2N-…-OH with histidine tag for immobilization] | peptide targets for C. albicans | – | reaction with ten clinical C. albicans isolates (released HRP) [3]: reacted strongly; sensitivity [3]: 100%; clipping by other vaginal bacteria [4]: not significantly clipped
7 | KPSIKPTPPY (Peptide Substrate of Candida spp.) [peptide target for C. albicans] | peptide targets for C. albicans | – | –
8 | LHNYVLLRNIL (Peptide Substrate of Trichomonas vaginalis) [38H8/T7, peptide detecting Trichomonas vaginalis] | – | detect Trichomonas vaginalis | –
9 | LYPSQNPVIK (Peptide Substrate of Candida spp.) [peptide target for C. albicans] | peptide targets for C. albicans | – | –
10 | NITKKSTKII (Peptide Substrate of Candida spp.) [peptide target for C. albicans] | peptide targets for C. albicans | – | –
11 | NKTNKTKHAY (Peptide Substrate of Trichomonas vaginalis) [42H8/T7, peptide detecting Trichomonas vaginalis] | – | detect Trichomonas vaginalis | –
12 | NNPLPKIQKN (Peptide Substrate of Trichomonas vaginalis) [38H9/T7, peptide detecting Trichomonas vaginalis] | – | detect Trichomonas vaginalis | –
13 | QINKALKQPK (Peptide Substrate of Trichomonas vaginalis) [41El 1/T7, peptide detecting Trichomonas vaginalis] | – | detect Trichomonas vaginalis | –
14 | QIPKSLHPIT (Peptide Substrate of Trichomonas vaginalis) [42D3/T7, peptide detecting Trichomonas vaginalis] | – | detect Trichomonas vaginalis | –
15 | QKTTIKKLKH (also: HRP or Blue dye #1 Affigel conjugate) [H2] | peptide targets for C. albicans | – | reaction with ten clinical C. albicans isolates (released HRP) [3]: reacted strongly; sensitivity [3]: 100%; clipping by other vaginal bacteria [4]: not significantly clipped; blue dye released from beads / peptide hydrolysis, color collected on membrane (Candida albicans; overnight grown Candida albicans, 24 hours at 37° C., no signal from control medium): highly visible blue color
16 | QRTTIRRLRH [modified H2 peptide] | – | – | time to visible blue dye release (Candida albicans; collection of color in a feminine pad): approximately 3 hours
17 | SKQQDIIKKY (Peptide Substrate of Trichomonas vaginalis) [44E6/T7, peptide detecting Trichomonas vaginalis] | – | detect Trichomonas vaginalis | –

From patent US20070128589A1, “Substrates, sensors, and methods for assessing conditions in females” (priority 2005, published 2007)
